Results taken from patent US12116421B2, “Peptide-based Dopa containing adhesive gels” (KING ABDULLAH UNIVERSITY OF SCIENCE AND TECHNOLOGY, priority 2020, dated 2024).
Where a SMILES comes first, the peptide text is derived from it. [ ]: non-standard residue; d: D form. Dopa = N[C@@H](Cc1ccc(O)c(O)c1)C(=O)O; Cha = N[C@@H](CC1CCCCC1)C(=O)O

Legend:
[1] = system: mouse myoblast cells (C2C12); experiment: Cytocompatibility of peptide nanogels, 3D culture, MTT and live/dead staining; type: cell-based; details: for effect on cell growth: C2C12, nanogel 3 mg/mL, compared to 2D culture; for biocompatibility with C2C12 cells: hydrogel scaffold, live/dead staining versus 2D culture
Experimental: In one embodiment, cytocompatibility of the peptide nanogels was evaluated using mouse myoblast cells (C2C12). After 24 hours of incubation, cell proliferation was tested with DoIIZK, IIZDoK, IIZKDo, IIZ(KDo)2 and IIZ(KDo)3 at a concentration of 3 mg/mL to evaluate biocompatibility. The MTT (3-(4,5-dimethylthiazol-2-yl)-2,5-diphenyltetrazolium bromide) assay was used in order to quantify the number of viable cells. In one embodiment, a standard curve for a known number of cells was also plotted. In one embodiment, the test results were compared to the positive control 2D culture. A positive indication of cytocompatibility would be the survival of the cells following incubation with the peptides. For comparison, peptides DoIIZK, IIZDoK, IIZKDo, IIZ(KDo)2 and IIZ(KDo)3 were tested as part of the study. The cytocompatibilty of all peptides tested was evaluated by quantifying the survival cells by visualising the live/dead cells using calcein AM and Ethidium bromide staining.
Poli-D Lysine (PDL) was used for 2D control. The scalebar in FIG. 35 is 200 μm. Cytocompatibility of all peptides was evaluated by quantifying the survival cells by visualising the live/dead cells using calcein AM and Ethidium homodimer staining. The live cells are stained green by calcein AM, while the dead cells are stained red by Ethidium homodimer.
For mouse myoblast cells (C2C12) culture expansion, C2C12 cells were cultured either in a T175 or T75 culture flask in complete DMEM media (10% FBS and 1% P/S). The cells were placed in a humidified incubator at 37° C., with 95% air and 5% CO2. Then they were subcultured using trypsin at approximately 80% confluence. Fresh culture media was added every 48 h to each well, after removing the previous media.
For 3D culture of mouse myoblast cells in peptide hydrogels and cell viability assay, C2C12 cells were encapsulated in peptide hydrogels in a 96-well plate.^61 Briefly, peptide solutions DopaIIZK, IIZDopaK, IIZKDopa (3 mg/mL) were added to 40 μL/well. Mouse myoblast cells (30,000 cells/well) that were re-suspended in 2×PBS were then, mixed gently with the peptide solutions. The gelation time was 1-3 min for all 5 peptides. Subsequently, the culture medium was added to the wells.
The viability of 3D cultured cells was assessed using the LIVE/DEAD Viability/Cytotoxicity Kit (ThermoFisher®, USA)^11. Calcein acetoxymethyl ester (Calcein-AM) is used to detect viable cells and ethidium homodimer-I (EthD-I) is used to detect dead cells. Briefly, staining with 2 μM of Calcein-AM and 4 μM of EthD-1 is performed after washing with Dulbecco's phosphate-buffered saline (D-PBS). After 30 minutes incubation, the staining solution was discarded, and 1×D-PBS was added to each well before imaging. Stained cells were imaged with an inverted confocal microscope (Zeiss® LSM 710 Inverted Confocal Microscope, Germany) or ZEISS® fluorescent microscope.

[2] = system: mouse myoblast cells (C2C12); experiment: as above; type: cell-based; details: various concentrations up to the solubility limit of the peptides
[3] = AFM force spectroscopy adhesion measurement in liquid; type: physicochemical
Experimental: In one embodiment, the peptides were dissolved in the proper solution at a concentration of 10 mg/mL. The peptide solutions were spotted on a freshly cleaved mica sheet and the measurement was performed in liquid.
In one embodiment, the adhesion properties of the Dopa peptides are influenced by the construct lysine-Dopa and by the position of the catechol moiety in the peptide sequence, as indicated by the AFM force spectroscopy results in liquid. In a typical force spectroscopy curve the probe is several times approached to the surface and retracted and for every cycle of retraction the maximum force of adhesion is recorded. The incorporation of a catechol moiety near a lysine would enhance adhesion to negatively charged surfaces. FIG. 28 illustrates the effect of lysine on adhesion to negatively charged surfaces. Therefore, probes and substrates that were manifesting negative charges on their surfaces, such as the silicon probe and the freshly cleaved mica substrate, are used in the AFM spectroscopy. The setup of probe and substrate is illustrated in FIG. 29.
The peptides dissolved in the proper solution at 13 mM concentration each, were spotted on a freshly cleaved mica sheet and the measurement was performed in liquid. Several force curves were recorded for different buffers. […] In FIG. 30, the inset image represents the maximum extension of each peptide dissolved in water, when manually pulled between two glass slides. Also in FIG. 30, the approach part of the curve contains the important information defined as “jump to contact”, while the retract part of the F-D curve contains the adhesion force value. […] Two controls were also introduced: namely the original peptide IIZK, and an alternative peptide IIFK. To better understand the influence of Dopa on the adhesion properties of the peptide, the original short peptide IIZK would make a perfect negative control. We also introduced as a control the IIFK peptide in order to understand the effect of IIZK itself on adhesion. In FIG. 32, statistical significance expressed as p<0.01.
AFM topography measurements were performed on a Dimension Icon SPM (Bruker®). The samples were prepared as follows: peptides were dissolved at 13 mM concentration in MilliQ® water; after 30 minutes, 20 μl of these solutions were dropped on freshly cleaved mica sheets and immediately dried with an N2 stream. Measurements were immediately performed in tapping mode in air by the use of an AFM probe AC_240TS_R3 (Olympus®) with nominal free oscillation at roughly 70 kHz and a nominal spring constant of 2 N/m. The probe was calibrated by contact-free method.^54 Free oscillation amplitude was set at 200 mV with a 5% damping during tapping mode measurement. AFM adhesion measurements were performed on a JPK Nanowizard™ III mounted on Olympus® IX-81 inverted optical microscope. A mica sheet was glued one day before the experiment with double component epoxy glue to a glass slide and enclosed in a plastic o-ring provided by the JPK company for liquid measurements. Each peptide was dissolved in MilliQ® water at a concentration of 13 mM and mixed gently. Starting with the measurement in MilliQ® water, 50 μL of the solution were dropped on the freshly cleaved mica sheet within 5 minutes from the preparation of the solution and let equilibrate for 10 minutes. After, the excess solution was removed by pipetting and discarded. Then 1 mL of MilliQ® water was added gently from the side and after 5 minutes, the sample was rinsed 3 times by additional 1 mL MilliQ® water. Finally, the sample was measured by AFM force spectroscopy (Quantitative imaging mode) with additional 1 mL MilliQ® water. The MilliQ® water was exchanged after the measurement alternatively with a water solution containing 137 mM NaCl or 10 mM Phosphate ions (a combination of Na2HPO4·7H2O and NaH2PO4·H2O to reach pH 7.4). After performing the force spectroscopy map in these two different solutions, eventually, the liquid was exchanged with 1×PBS pH 7.4. […]

Molecule	effect on cell growth [1]	metabolic activity of cells versus 2D cultures ([1]; cells cultured in nanogels, 2D = cells in absence of peptides)	time cells stay metabolically active in nanogel ([1]; cells grown in nanogels)	biocompatibility with C2C12 cells [1]	cell viability / toxicity [2]	Force of adhesion (Geometric Mean) ([3]; 10 mM PO4, peptide 13 mM) [PN]	Force of adhesion (Geometric Mean) ([3]; 137 mM NaCl, peptide 13 mM) [PN]	Force of adhesion (Geometric Mean) ([3]; 1×PBS, peptide 13 mM) [PN]	Force of adhesion (Geometric Mean) ([3]; MilliQ water, peptide 13 mM) [PN]	reduction of adhesion values by addition of both NaCl and PO4 ([3]; NaCl and PO4 versus MilliQ water)	increase of adhesion force by addition of NaCl ([3]; NaCl versus MilliQ water) [%]
CC[C@H](C)[C@H](NC(C)=O)C(=O)N[C@H](C(=O)N[C@@H](CC1CCCCC1)C(=O)N[C@@H](CCCCN)C(=O)N[C@@H](Cc1ccc(O)c(O)c1)C(=O)N[C@@H](CCCCN)C(=O)N[C@@H](Cc1ccc(O)c(O)c1)C(N)=O)[C@@H](C)CC [IIZ(KDo)2] (Ac-II[Cha]K[Dopa]K[Dopa]-NH2)	did not affect cell growth	consistently comparable to 2D cultures	metabolically active for up to day 21	biocompatible	good viability						
CC[C@H](C)[C@H](NC(C)=O)C(=O)N[C@H](C(=O)N[C@@H](CC1CCCCC1)C(=O)N[C@@H](CCCCN)C(=O)N[C@@H](Cc1ccc(O)c(O)c1)C(=O)N[C@@H](CCCCN)C(=O)N[C@@H](Cc1ccc(O)c(O)c1)C(=O)N[C@@H](CCCCN)C(=O)N[C@@H](Cc1ccc(O)c(O)c1)C(N)=O)[C@@H](C)CC [IIZ(KDo)3] (Ac-II[Cha]K[Dopa]K[Dopa]K[Dopa]-NH2)	reduced cell growth			not biocompatible	toxic						
Ac-Ile-Ile-Phe-Lys-NH2 (Ac-IIFK-NH2) [alternative peptide used as control, reference compound]						8.358	13.217	12.13	89.77	about 80%	
Ac-II[Cha]K-NH2 [IIZK, reference compound]						5.681	100.4	11.5885	75.66		20
